± gives the expanded uncertainty stated by the source.
Details: 101 kPa, Liquid

mass density (293.15 K) [kg/m3]	speed of sound (293.15 K) [m/s]	viscosity (293.15 K) [mPa·s]	mass density (298.15 K) [kg/m3]	speed of sound (298.15 K) [m/s]	viscosity (298.15 K) [mPa·s]	mass density (303.15 K) [kg/m3]	speed of sound (303.15 K) [m/s]	viscosity (303.15 K) [mPa·s]	SMILES
809.5 ± 0.43	1257 ± 2	2.941 ± 0.068	805.75 ± 0.43	1240 ± 2	2.571 ± 0.06	801.8 ± 0.44	1224 ± 2	2.255 ± 0.053	CCCCO [butan-1-ol]
778.62 ± 0.48	1279 ± 3	0.968 ± 0.024	773.92 ± 0.48	1254 ± 3	0.887 ± 0.022	769.19 ± 0.49	1230 ± 3	0.816 ± 0.021	C1CCCCC1 [cyclohexane]
789.75 ± 0.46	1162 ± 3	1.187 ± 0.029	785.46 ± 0.47	1145 ± 2	1.082 ± 0.027	781.15 ± 0.47	1128 ± 2	0.987 ± 0.025	CCO [ethanol]
744.52 ± 0.63	1232 ± 2	0.439 ± 0.013	739.55 ± 0.64	1206 ± 2	0.416 ± 0.012	734.54 ± 0.65	1180 ± 2	0.394 ± 0.012	C1CCCC1 [cyclopentane]

From the NIST ThermoML archive (doi:10.1016/j.jct.2006.06.008)
